Measured values reported in patent US5852011A, “Benzimidazole derivatives” (Mitsui Chemicals, Inc., priority 1994, dated 1998).
Where a name gives a salt, the structure may show the parent alone.

Each compound was assayed on mouse B16 melanoma cells (assay: In vitro inhibition of proliferation of tumored cells, mouse B16 melanoma (Test 2)). Conditions: 3 days in 5% CO2 at 37° C., 96-well plate.
Type: cell-based
Procedure: A description will next be made of antitumor activities of these compounds. Their antitumor activities were determined by measuring their in vitro inhibition of proliferation of tumored cells. Namely, mouse B16 melanoma cells were spread over a 96-well culture plate. One day later, each drug was applied. The melanoma cells were then incubated for 3 days in 5% CO2 at 37° C. Following the method reported in Cancer Res., 48, 589-601(1988), the concentration of the drug required to induce 50% inhibition on the proliferation was determined. As a comparative example, the results obtained from the application of distamycin are also shown.

Structure (SMILES)	50% Inhibition
Cn1cc(NC(=O)CC[S+](C)C)cc1-c1nc2cc(C(=O)Nc3ccc(N(CCCl)CCCl)c(F)c3)ccc2[nH]1 [1076 (Cl' salt), 2-[N-[1-Methyl-2-[5-[N-[3-fluoro-4-[N,N-bis(2-chloroethyl)amino]phenyl]]carbamoyl]-1H-benzimidazol-2-ylpyrrol-4-yl]carbamoylethyl-dimethylsulfonium chloride]	0.45 µg/mL
Cn1cc(NC(=O)CCc2ccc(N(CCCl)CCCl)cc2)cc1-c1nc2cc(C(=O)NCCC(=N)N)ccc2[nH]1 [Compound 3, 1H-2-[4-[3-[4-[N,N-Bis(2-chloroethyl)amino]phenyl]propionylamino]-1-methylpyrrol-2-yl]benzimidazole-5-[N-(2-amidinoethyl)]carboxamide hydrochloride]	0.019 µg/mL
Cn1cc(NC(=O)c2ccc(CN(CCCl)CCCl)cc2)cc1-c1nc2cc(C(=O)NCCC(=N)N)ccc2[nH]1 [Compound 14, 1H-2-[4-[4-[N,N-Bis(2-chloroethyl)aminomethyl]benzoylamino]-1-methylpyrrol-2-yl]benzimidazole-5-(N-(2-amidinoethyl)]carboxamide hydrochloride]	0.57 µg/mL
Cn1cc(NC(=O)c2cccc(N(CCCl)CCCl)c2)cc1-c1nc2cc(C(=O)NCCC(=N)N)ccc2[nH]1 [Compound 15, 1H-2-[4-[3-[N,N-bis(2-chloroethyl)amino]benzoylamino]-1-methylpyrrol-2-yl]benzimidazole-5-[N-(2-amidinoethyl)]carboxamide hydrochloride]	0.057 µg/mL
Cn1cc(NC(=O)c2ccc(N(CCCl)CCCl)cc2)cc1-c1nc2cc(C(=O)NCCN)ccc2[nH]1 [Compound 129, 1H-2-[4-[4-[N,N-Bis(2-chloroethyl)amino]benzoylamino]-1-methylpyrrol-2-yl]benzimidazole-5-[N-(2-aminoethyl)]carboxamide hydrochloride]	0.18 µg/mL
Cn1cc(NC(=O)c2ccc(N(CCCl)CCCl)cc2)cc1-c1nc2cc(C(=O)NCc3cccnc3)ccc2[nH]1 [Compound 223, 1H-2-[4-[4-[N,N-Bis(2-chloroethyl)amino]benzoylamino]-1-methylpyrrol-2-yl]benzimidazole-5-[N-(3-picolyl)]carboxamide hydrochloride]	1.1 µg/mL
Cn1cc(NC(=O)c2ccc(N(CCCl)CCCl)cc2)cc1-c1nc2cc(C(=O)NCc3ccc[n+](C)c3)ccc2[nH]1 [Compound 247, 3-[[1H-2-[4-[4-[N,N-Bis(2-chloroethyl)amino]-benzoylamino]-1-methylpyrrol-2-yl]benzimidazole-5-carboxamido]methyl]-1-methylpyridinium chloride]	2.6 µg/mL
Cn1cc(NC(=O)c2ccc(N(CCBr)CCBr)cc2)cc1-c1nc2cc(C(=O)NCCC(=N)N)ccc2[nH]1 [Compound 260, 1H-2-[4-[4-[N,N-Bis(2-bromoethyl)amino]benzoylamino]-1-methylpyrrol-2-yl]benzimidazole-5-[N-(2-amidinoethyl)]carboxamide hydrochloride]	0.034 µg/mL
CCCCNC(=O)c1ccc2[nH]c(-c3cc(NC(=O)c4ccc(N(CCCl)CCCl)cc4)cn3C)nc2c1 [Compound 336, 1H-2-[4-[4-[N,N-Bis(2-chloroethyl)amino]benzoylamino]-1-methylpyrrol-2-yl]benzimidazole-5-(N-butyl)carboxamide]	0.24 µg/mL
N=C(N)CCNC(=O)c1ccc2[nH]c(-c3csc(NC(=O)CCCc4ccc(N(CCCl)CCCl)cc4)c3)nc2c1 [Compound 424, 1H-2-[2-[4-[4-[N,N-Bis(2-chloroethyl)amino]phenyl]butyrylamino]thiophen-4-yl]benzimidazole-5-[N-(2-amidinoethyl)]carboxamide hydrochloride]	0.08 µg/mL
Cn1cc(NC(=O)CNC(=N)N)cc1-c1nc2cc(C(=O)NCCCc3ccc(N(CCCl)CCCl)cc3)ccc2[nH]1 [Compound 1004, 1H-2-[4-(2-Guanidinoacetylamino)-1-methylpyrrol-2-yl]benzimidazole-5-[N-[3-[4-[N,N-bis(2-chloroethyl)amino]phenyl]propyl]]carboxamide hydrochloride]	0.047 µg/mL
CN(C)CCNC(=O)c1cc(N(CCCl)CCCl)ccc1NC(=O)c1ccc2[nH]c(-c3cc(NC(=O)CNC(=N)N)cn3C)nc2c1 [Compound 1042, 1H-2-[1-Methyl-4-(guanidinoacetylamino)pyrrol-2-yl]benzimidazole-5-[N-[2-[N-[(N,N-dimethylamino)ethyl]carboxamido]-4-[N,N-bis(2-chloroethyl)amino]phenyl]]carboxamide dihydrochloride]	3.49 µg/mL
Cn1cc(NC(=O)CNC(=N)N)cc1-c1nc2cc(C(=O)Nc3cccc(N(CCCl)CCCl)c3)ccc2[nH]1 [Compound 1047, 1H-2-[1-Methyl-4-(guanidinoacetylamino)pyrrol-2-yl]benzimidazole-5-[N-[3-[N,N-bis(2-chloroethyl)amino]phenyl]]carboxamide dihydrochloride]	0.0946 µg/mL
Cn1cc(NC(=O)CC[S+](C)C)cc1-c1nc2cc(C(=O)Nc3ccc(N(CCCl)CCCl)c(Cl)c3)ccc2[nH]1 [Compound 1072, 2-[N-[1-Methyl-2-[5-[N-[3-chloro-4-[N,N-bis(2-chloroethyl)amino]phenyl]]carbamoyl]-1H-benzimidazol-2-yl]pyrrol-4-yl]carbamoylethyl-dimethylsulfonium chloride]	0.51 µg/mL

Same assay, conditions: Mus musculus, B16, 72 h, read-out: 50% Inhibition

Structure (SMILES)	IC50
CCN(CCCl)c1ccc(NC(=O)c2ccc3[nH]c(-c4cc(NC(=O)CNC(=N)N)cn4C)nc3c2)cc1 [Compound 1048, 1H-2-[1-Methyl-4-(2-guanidinoacetylamino)pyrrol-2-yl]benzimidazol-5-[N-[4-[N-ethyl,N-(2-chloroethyl)amino]phenyl]]carboxamide dihydrochloride]	5.58 µg/mL
CCN(CCCl)c1cccc(NC(=O)c2ccc3[nH]c(-c4cc(NC(=O)CNC(=N)N)cn4C)nc3c2)c1 [Compound 1049, 1H-2-[1-Methyl-4-(guanidinoacetylamino)pyrrol-2-yl]benzimidazol-5-[N-[3-[N-ethyl,N-(2-chloroethyl)amino]phenyl]]carboxamide hydrochloride]	0.274 µg/mL

Same assay, conditions: Mus musculus, B16, 72 h; 3 days in 5% CO2 at 37° C., 96-well plate; read-out: 50% Inhibition

Structure (SMILES)	IC50
Cn1cc(NC(=O)CCCCCBr)cc1-c1nc2cc(C(=O)NCCC(=N)N)ccc2[nH]1 [Compound 16, hydrochloride]	0.6 µg/mL
Cn1cc(NC(=O)c2ccccc2)cc1-c1nc2cc(C(=O)NCCC(=N)N)ccc2[nH]1 [Compound 326, 1H-2-(4-Benzoylamino-1-methylpyrrol-2-yl)benzimidazole-5-[N-(2-amidinoethyl)]carboxamide hydrochloride]	12 µg/mL
N=C(N)CCNC(=O)c1ccc2[nH]c(-c3csc(NC(=O)c4ccccc4)c3)nc2c1 [Compound 438, 1H-2-(2-Benzoylaminothiophen-4-yl)benzimidazole-5-[N-(2-amidinoethyl)]carboxamide hydrochloride]	42.8 µg/mL
